In US20230357261A1, “ARYL HYDROCARBON RECEPTOR LIGANDS AND THEIR ANALOGUES FOR THE PREVENTION AND TREATMENT OF INFLAMMATORY DISORDERS” (The Johns Hopkins University, priority 2020, published 2023):
Entries after “also recorded” stand apart in the source; their conditions may differ.

Columns and labels:
[1] = test system: TLR4; test: TLR4 signaling in mouse ileal enteroids (LPS-induced Tnf-a qRT-PCR); format: cell-based; conditions: I3C or breast milk pre-treatment, LPS 50 μg/mL
Protocol: (§1) Primary intestinal crypt cultures (enteroids) were generated from the ileum of neonatal (p7-p11) wild type and Ahr′ mice at as described, Neal et al., 2012, and maintained in Matrigel (Corning). The enteroids were digested and passed using TrypLE Express (Gibco) weekly, and used between passage 3 and 10 for all experiments. The enteroids were pre-treated with I3C ([…], 12 h), A18 (20 μM, 12 h) or human breast milk (100 μL/mL, Innovative Research, prepared by 5-minute-cenrifugation at 12,000 g and then filtration of supernatant through a 0.22-μm filter) and then treated with LPS (50 μg/mL) for 4 hours for further analysis.
(§2) Primary intestinal crypt cultures (enteroids) were generated from the ileum of neonatal (p7-p11) mice at as described, Neal et al., 2012, and maintained in Matrigel (Corning). The enteroids were digested and passed using TrypLE Express (Gibco) weekly, and used between passage 3 and 10 for all experiments. The enteroids were pre-treated with tested compound (40 uM, overnight) and then treated with LPS (50 μg/mL) for 6 hours for further analysis.
(§3) Total RNA was isolated using the RNeasy mini kit (Qiagen) and complementary DNA was synthesized from 0.5 μg RNA using QuantiTect Reverse Transcription kit (Qiagen) following the manufacturer's protocols. The mRNA quantification was performed on the Bio-Rad CFX96 Real-Time System (Bio-Rad) using iTaq™ universal SYBR® Green supermix (Bio-Rad) and the primers listed in Table 2. The relative mRNA expression levels were normalized against the expression of the housekeeping gene ribosomal protein lateral stalk subunit P0 (Rplp0).

[2] = test system: miR-146b, miR-223 and let-7i; test: Tlr4 regulatory microRNAs in mouse ileum; format: in vivo; conditions: I3C 25 mg/kg body weight/day for 24 hours
Protocol: as §3, with “1.” for “2.”, “(Rplp0). For microRNA isolation, freshly harvested, snap-frozen ileal tissue was subjected to total RNA isolation using the RNeasy plus universal mini kit (Qiagen) and miRNA was quantified using miScript PCR starter kit (Qiagen) following the manufacturer's protocols. The relative miRNA expression levels were normalized against the expression of housekeeping miRNA miR-191.” for “(Rplp0).”

[3] = test system: AHR; test: AHR activation in IEC-6 enterocytes (Cyp1a1 expression); format: cell-based, rat; conditions: exposed to amniotic fluid, breast milk and serum harvested from pregnant mice administered I3C vs control diet
Protocol: The intestinal epithelial cells line IEC-6 (ATCC CRL-1592) was stably transduced with lentiviral particles containing Cignal Lenti XRE Reporter (luc) (Qiagen). Cells were treated serially with individual chemicals contained within the Johns Hopkins Drug Library (JHDL), which contains a series of FDA-approved drugs, Chong et al., 2006, (kindly provided by Dr. Jun O. Liu, Johns Hopkins University) at 10 μM for 24 hours, and the luciferase activity was quantified using the SpectraMax M3 (Molecular Devices).
as §3, with “1.” for “2.”, “(Rplp0). For microRNA isolation, freshly harvested, snap-frozen ileal tissue was subjected to total RNA isolation using the RNeasy plus universal mini kit (Qiagen) and miRNA was quantified using miScript PCR starter kit (Qiagen) following the manufacturer's protocols. The relative miRNA expression levels were normalized against the expression of housekeeping miRNA miR-191.” for “(Rplp0).”

[4] = test system: AHR; test: AHR activation in human ileal explant culture (Cyp1a1 qRT-PCR); format: cell-based; conditions: 200 μM I3C or 20 μM A18, 15 minutes pre-treatment then 6 hours
Excerpt: De-identified human ileal samples were collected via waiver of consent from the Office of Human Subjects Research Review Boards at Johns Hopkins University (IRB00094036), during surgery for NEC or at the time of stoma closure. For RNA isolation and qRT-PCR analysis, fresh samples were snapfrozen in liquid nitrogen immediately. For human explant culture, fresh ileum samples from NEC patients or patient undergoing stoma re-anastomosis were washed with sterile phosphate-buffered saline containing gentamycin (5 μg/mL), minced into 2- to 4-mm diameter pieces, and then cultured in Dulbecco's modified Eagle growth medium supplemented with 10% fetal bovine serum, 4 μg/mL human recombinant insulin and 100 μg/mL Primocin. […]
Total RNA was isolated using the RNeasy mini kit (Qiagen) and complementary DNA was synthesized from 0.5 μg RNA using QuantiTect Reverse Transcription kit (Qiagen) following the manufacturer's protocols. The mRNA quantification was performed on the Bio-Rad CFX96 Real-Time System (Bio-Rad) using iTaq™ universal SYBR® Green supermix (Bio-Rad) and the primers listed in Table 1. […] For microRNA isolation, freshly harvested, snap-frozen ileal tissue was subjected to total RNA isolation using the RNeasy plus universal mini kit (Qiagen) and miRNA was quantified using miScript PCR starter kit (Qiagen) following the manufacturer's protocols. […]

[5] = test system: mouse NEC model; test: Experimental NEC in newborn mice (Example 1); format: in vivo
[6] = test system: TLR4; test: TLR4 signaling and expression in human ileal explant culture (LPS); format: cell-based; conditions: 200 μM I3C or 20 μM A18; LPS 50 μg/mL for 6 hours
Excerpt: De-identified human ileal samples were collected via waiver of consent from the Office of Human Subjects Research Review Boards at Johns Hopkins University (IRB00094036), during surgery for NEC or at the time of stoma closure. For RNA isolation and qRT-PCR analysis, fresh samples were snapfrozen in liquid nitrogen immediately. For human explant culture, fresh ileum samples from NEC patients or patient undergoing stoma re-anastomosis were washed with sterile phosphate-buffered saline containing gentamycin (5 μg/mL), minced into 2- to 4-mm diameter pieces, and then cultured in Dulbecco's modified Eagle growth medium supplemented with 10% fetal bovine serum, 4 μg/mL human recombinant insulin and 100 μg/mL Primocin. Human ilea explant cultures were then pre-treated with 200 μM I3C or 20 μM A18 for 15 minutes, and then with 50 μg/mL LPS for 6 hours, then processed for total RNA isolation followed by qRT-PCR.
Total RNA was isolated using the RNeasy mini kit (Qiagen) and complementary DNA was synthesized from 0.5 μg RNA using QuantiTect Reverse Transcription kit (Qiagen) following the manufacturer's protocols. The mRNA quantification was performed on the Bio-Rad CFX96 Real-Time System (Bio-Rad) using iTaq™ universal SYBR® Green supermix (Bio-Rad) and the primers listed in Table 1. The relative mRNA expression levels were normalized against the expression of the housekeeping gene ribosomal protein lateral stalk subunit P0 (Rplp0). For microRNA isolation, freshly harvested, snap-frozen ileal tissue was subjected to total RNA isolation using the RNeasy plus universal mini kit (Qiagen) and miRNA was quantified using miScript PCR starter kit (Qiagen) following the manufacturer's protocols. The relative miRNA expression levels were normalized against the expression of housekeeping miRNA miR-191.

[7] = test system: AHR; test: AHR activation in mouse ileal enteroids (Cyp1a1 qRT-PCR); format: cell-based; design: Cyp1a1 expression (AHR activation) in enteroids: dose or concentration left out as unconfirmed
Protocol: as §1, §2, §3

[8] = test system: TLR4; test: TLR4 signaling and Tlr4 expression in newborn mouse ileum in vivo (endotoxemia model, LPS)
Protocol: Endotoxemia was induced in neonatal mouse pups (p11) by administering 5 mg/kg lipopolysaccharides (LPS) via intraperitoneal injection, and ileal samples were harvested 6 hours after LPS treatments. […] I3C and A18 were administered to the pregnant mother daily until the offspring were studied further for experimental NEC or endotoxemia as above. […] The mRNA quantification was performed on the Bio-Rad CFX96 Real-Time System (Bio-Rad) using iTaqTM universal SYBR® Green supermix (Bio-Rad) and the primers listed in Table 1. The relative mRNA expression levels were normalized against the expression of the housekeeping gene ribosomal protein lateral stalk subunit P0 (Rplp0). For microRNA isolation, freshly harvested, snap-frozen ileal tissue was subjected to total RNA isolation using the RNeasy plus universal mini kit (Qiagen) and miRNA was quantified using miScript PCR starter kit (Qiagen) following the manufacturer's protocols. The relative miRNA expression levels were normalized against the expression of housekeeping miRNA miR-191.

[9] = pups, maternal I3C during pregnancy

OCc1c[nH]c2ccccc12 [I3C, indole-3-carbinol]
LPS-induced Tnfa expression in enteroids ([1]; Ahr^−/− enteroids): not | LPS-induced Tnfa expression in enteroids ([1]; wild-type enteroids): significantly reduced the LPS-mediated induction of Tnfa | expression in the ileum of microRNAs miR-146b, miR-223 and let-7i ([2]; Ahr^−/− mice): did not increase the expression of these microRNAs | expression in the ileum of microRNAs miR-146b, miR-223 and let-7i ([2]; wild type mice): significantly upregulated | Cyp1a1 expression in cultured IEC-6 enterocytes [3]: significantly increased the expression of Cyp1a1 | Cyp1a1 expression in human intestinal explant cultures [4]: induced the expression of Cyp1a1 | NEC severity ([5]; Ahr^ΔIEC mice, I3C 25 mg/kg/day during NEC induction): relatively scant protective effect | NEC severity ([5]; Ahr^Δlys mice, I3C 25 mg/kg/day during NEC induction): moderate protective effect; also recorded: protection against NEC development | NEC severity ([5]; Ahr^−/− mice, oral to pups during NEC induction: I3C 25 mg/kg/day, A18 300 mg/kg/day, or human breast milk 5% in formula): no protective effect | NEC severity ([5]; Il22^−/− mice, I3C 25 mg/kg/day for 4 days): reduced NEC severity | severity of experimental NEC in the pups ([5]; oral I3C to the mother during pregnancy, 25 mg/kg body weight/day): significantly reduced the severity of experimental NEC | expression of 116 in the intestinal epithelium (NEC) [5, 9]: reduced expression of 116 | histological injury (terminal ileum, NEC) [5, 9]: reduced histological injury | intestinal epithelial apoptosis (TUNEL, NEC) [5, 9]: reduced intestinal epithelial apoptosis | NEC severity ([5]; wild-type mice, oral to pups during NEC induction: I3C 25 mg/kg/day, A18 300 mg/kg/day, or human breast milk 5% in formula): significantly reduced the severity of NEC; also recorded: protection against NEC development | LPS-induced Tnf-a expression in human intestinal explant cultures [6]: reduced LPS-induced Tnf-a expression | Cyp1a1 expression (AHR activation) in enteroids ([7]; Ahr^−/− enteroids, I3C or human breast milk): not | Cyp1a1 expression (AHR activation) in enteroids ([7]; wild-type enteroids, I3C (12 h) or human breast milk (100 μL/mL)): induced the expression of Cyp1a1 | TLR4 signaling (LPS-induced Tnfa) in the intestine ([8]; Ahr^−/− mice, I3C): did not reduce | Tlr4 expression in the intestinal mucosa ([8]; Ahr^−/− mice, I3C): did not reduce | induction of the proinflammatory cytokine 116 in the neonatal (p11) mouse intestine in response to LPS ([8]; maternal administration of I3C, vs pups from non I3C-treated mothers): significantly reduced the induction of the proinflammatory cytokine 116 | Tlr4 expression in the intestinal mucosa / newborn ileum ([8]; wild-type mice, fed I3C or A18): reduced expression of Tlr4 | LPS-induced Tnfa expression (TLR4 signaling) in the intestine ([8]; wild-type p11 mice fed I3C): reduced LPS-induced Tnfa expression
